Data published in paper PMC5218480 (PLoS ONE, 2017).

Test system: MV-4-11 cells
Assay: Gene expression microarray analysis (Affymetrix PrimeView) and GSEA
Assay type: cell-based, human
Design: RFU PODN (11730768_x_at) / Fold change /veh PODN (11730768_x_at) / RFU LINC00158 (11744669_a_at) / Fold change /veh LINC00158 (11744669_a_at) / RFU DUSP10 (11751237_a_at) / Fold change /veh DUSP10 (11751237_a_at) / RFU ID3 (11757404_x_at) / Fold change /veh ID3 (11757404_x_at) / RFU PLEKHG5 (11737974_s_at) / Fold change /veh PLEKHG5 (11737974_s_at) / RFU LRRC4B (11730491_at) / Fold change /veh LRRC4B (11730491_at) / RFU GIMAP4 (11747438_a_at) / Fold change /veh GIMAP4 (11747438_a_at) / RFU KRT8 (11758183_x_at) / Fold change /veh KRT8 (11758183_x_at) / RFU CNN1 (11734310_a_at) / Fold change /veh CNN1 (11734310_a_at) / RFU VPS37D (11726825_at) / Fold change /veh VPS37D (11726825_at) / RFU C10orf10 (11716522_x_at) / Fold change /veh C10orf10 (11716522_x_at) / RFU KIR2DL2 /// KIR2DL4 /// KIR2DL5A /// KIR2DL5B /// KIR2DS1 /// KIR2DS2 /// KIR2DS3 /// KIR2DS4 /// KIR3DL3 /// KIR3DL3 /// KIR3DS1 (11738374_at) / Fold change /veh KIR2DL2 /// KIR2DL4 /// KIR2DL5A /// KIR2DL5B /// KIR2DS1 /// KIR2DS2 /// KIR2DS3 /// KIR2DS4 /// KIR3DL3 /// KIR3DL3 /// KIR3DS1 (11738374_at) / RFU C1QL1 (11718748_at) / Fold change /veh C1QL1 (11718748_at) / RFU TMPRSS4 (11747572_a_at) / Fold change /veh TMPRSS4 (11747572_a_at) / RFU HAMP (11756126_x_at) / Fold change /veh HAMP (11756126_x_at) / RFU RNFT2 (11725882_a_at) / Fold change /veh RNFT2 (11725882_a_at) / RFU NR4A2 (11747474_a_at) / Fold change /veh NR4A2 (11747474_a_at) / RFU ABCC12 (11746883_a_at) / Fold change /veh ABCC12 (11746883_a_at) / RFU TMEM136 (11760407_x_at) / Fold change /veh TMEM136 (11760407_x_at) / RFU CLDN22 /// WWC2 (11732394_at) / Fold change /veh CLDN22 /// WWC2 (11732394_at) / RFU HLA-DPB1 (11760878_x_at) / Fold change /veh HLA-DPB1 (11760878_x_at) / RFU SPINT1 (11716480_a_at) / Fold change /veh SPINT1 (11716480_a_at) / RFU GAP43 (11754022_s_at) / Fold change /veh GAP43 (11754022_s_at) / RFU A4GNT (11735810_at) / Fold change /veh A4GNT (11735810_at) / RFU PRB3 (11715151_x_at) / Fold change /veh PRB3 (11715151_x_at) / RFU TUBB4B (11761932_at) / Fold change /veh TUBB4B (11761932_at) / RFU CAPN14 (11732068_a_at) / Fold change /veh CAPN14 (11732068_a_at) / RFU TMCC2 (11721928_a_at) / Fold change /veh TMCC2 (11721928_a_at) / RFU IRGQ (11745062_a_at) / Fold change /veh IRGQ (11745062_a_at) / RFU FAM174B (11720279_a_at) / Fold change /veh FAM174B (11720279_a_at) / RFU TMPRSS4 (11748680_a_at) / Fold change /veh TMPRSS4 (11748680_a_at) / RFU FAM212B (11763350_a_at) / Fold change /veh FAM212B (11763350_a_at) / RFU PLEKHG5 (11743358_a_at) / Fold change /veh PLEKHG5 (11743358_a_at) / RFU ZSCAN30 (11745921_a_at) / Fold change /veh ZSCAN30 (11745921_a_at) / RFU CMKLR1 (11741424_a_at) / Fold change /veh CMKLR1 (11741424_a_at) / RFU LOC101060620 /// MAPK8IP1 (11723275_at) / Fold change /veh LOC101060620 /// MAPK8IP1 (11723275_at) / RFU SPTSSB (11747773_x_at) / Fold change /veh SPTSSB (11747773_x_at) / RFU PRSS12 (11739890_at) / Fold change /veh PRSS12 (11739890_at) / RFU BIN1 (11741810_x_at) / Fold change /veh BIN1 (11741810_x_at) / RFU WNT11 (11732464_a_at) / Fold change /veh WNT11 (11732464_a_at) / RFU C10orf10 (11716521_a_at) / Fold change /veh C10orf10 (11716521_a_at) / RFU C5orf56 (11738089_at) / Fold change /veh C5orf56 (11738089_at) / RFU CYB561 (11721691_x_at) / Fold change /veh CYB561 (11721691_x_at) / RFU ANKRD19P (11752326_a_at) / Fold change /veh ANKRD19P (11752326_a_at) / RFU OR2T12 /// OR2T33 /// OR2T8 (11738714_s_at) / Fold change /veh OR2T12 /// OR2T33 /// OR2T8 (11738714_s_at) / RFU VCAN (11748164_a_at) / Fold change /veh VCAN (11748164_a_at) / RFU JSRP1 (11732532_at) / Fold change /veh JSRP1 (11732532_at) / RFU KRTAP10-11 (11738290_x_at) / Fold change /veh KRTAP10-11 (11738290_x_at) / RFU MYO3A (11730013_a_at) / Fold change /veh MYO3A (11730013_a_at) / RFU EBF3 (11725865_a_at) / Fold change /veh EBF3 (11725865_a_at) / RFU CAMK2N1 (11719241_x_at) / Fold change /veh CAMK2N1 (11719241_x_at) / RFU C5orf56 (11738088_a_at) / Fold change /veh C5orf56 (11738088_a_at) / RFU OLFML3 (11715873_a_at) / Fold change /veh OLFML3 (11715873_a_at) / RFU LOC100653217 /// NTM (11731650_a_at) / Fold change /veh LOC100653217 /// NTM (11731650_a_at) / RFU MAPK11 (11762145_a_at) / Fold change /veh MAPK11 (11762145_a_at) / RFU FIZ1 (11724087_x_at) / Fold change /veh FIZ1 (11724087_x_at) / RFU OASL (11726364_x_at) / Fold change /veh OASL (11726364_x_at) / RFU SOX15 (11748057_x_at) / Fold change /veh SOX15 (11748057_x_at) / RFU CD79A (11719716_a_at) / Fold change /veh CD79A (11719716_a_at) / RFU HIST1H1D (11736915_at) / Fold change /veh HIST1H1D (11736915_at) / RFU CASKIN2 (11723855_a_at) / Fold change /veh CASKIN2 (11723855_a_at) / RFU LOC730098 (11760151_x_at) / Fold change /veh LOC730098 (11760151_x_at) / RFU OR4N2 (11742367_at) / Fold change /veh OR4N2 (11742367_at) / RFU PRRT2 (11749266_a_at) / Fold change /veh PRRT2 (11749266_a_at) / RFU SNX32 (11753110_a_at) / Fold change /veh SNX32 (11753110_a_at) / RFU CDHR5 (11726645_a_at) / Fold change /veh CDHR5 (11726645_a_at) / RFU RCAN1 (11760418_a_at) / Fold change /veh RCAN1 (11760418_a_at) / RFU FAM167A (11723789_a_at) / Fold change /veh FAM167A (11723789_a_at) / RFU FAM26E (11764081_at) / Fold change /veh FAM26E (11764081_at) / RFU ISYNA1 (11749810_s_at) / Fold change /veh ISYNA1 (11749810_s_at) / RFU ACY1 (11761880_at) / Fold change /veh ACY1 (11761880_at) / RFU 11764098_at / Fold change /veh 11764098_at / RFU SAMD14 (11745864_x_at) / Fold change /veh SAMD14 (11745864_x_at) / RFU NPB (11741838_a_at) / Fold change /veh NPB (11741838_a_at) / RFU TMPRSS6 (11731388_a_at) / Fold change /veh TMPRSS6 (11731388_a_at) / RFU KRTAP10-2 (11738614_at) / Fold change /veh KRTAP10-2 (11738614_at) / RFU ARHGAP8 /// PRR5-ARHGAP8 (11727945_x_at) / Fold change /veh ARHGAP8 /// PRR5-ARHGAP8 (11727945_x_at) / RFU KRTAP5-7 /// NADSYN1 (11734609_at) / Fold change /veh KRTAP5-7 /// NADSYN1 (11734609_at) / RFU RASL12 (11751679_a_at) / Fold change /veh RASL12 (11751679_a_at) / RFU CDKN2B (11736163_a_at) / Fold change /veh CDKN2B (11736163_a_at) / RFU PRF1 (11729649_at) / Fold change /veh PRF1 (11729649_at) / RFU, ZNF638 /// ZNF638-IT1 / Fold change vs veh, ZNF638 /// ZNF638-IT1 / RFU, PANK3 / Fold change vs veh, PANK3 / RFU, SH3YL1 / Fold change vs veh, SH3YL1 / RFU, ZEB2 / Fold change vs veh, ZEB2 / RFU, NRIP1 / Fold change vs veh, NRIP1 / RFU, PTTG1IP / Fold change vs veh, PTTG1IP / RFU, CAPN2 / Fold change vs veh, CAPN2 / RFU, MED14 / Fold change vs veh, MED14 / RFU, SNORA58 / Fold change vs veh, SNORA58 / RFU, C1orf63 / Fold change vs veh, C1orf63 / RFU, LRRFIP1 / Fold change vs veh, LRRFIP1 / RFU, NDUFAF7 / Fold change vs veh, NDUFAF7 / RFU, SLC12A2 / Fold change vs veh, SLC12A2 / RFU, IBTK / Fold change vs veh, IBTK / RFU, ESF1 / Fold change vs veh, ESF1 / Fold change vs veh, TMEM50B / RFU, TAOK1 / Fold change vs veh, TAOK1 / RFU, ACBD3 / Fold change vs veh, ACBD3 / RFU, TMA16 / Fold change vs veh, TMA16 / RFU, RWDD3 / Fold change vs veh, RWDD3 / RFU, BCAT1 / Fold change vs veh, BCAT1 / RFU, EDEM3 / Fold change vs veh, EDEM3 / RFU, TMEM33 / Fold change vs veh, TMEM33 / RFU, WDR75 / Fold change vs veh, WDR75 / RFU, AHCTF1 / Fold change vs veh, AHCTF1 / RFU, TFRC / Fold change vs veh, TFRC / RFU, ZDHHC17 / Fold change vs veh, ZDHHC17 / RFU, NOM1 / Fold change vs veh, NOM1 / RFU, ARL8B / Fold change vs veh, ARL8B / RFU, ZBTB11 / Fold change vs veh, ZBTB11 / RFU, TAMM41 / Fold change vs veh, TAMM41 / RFU, KIAA1704 /// LOC100996395 / Fold change vs veh, KIAA1704 /// LOC100996395 / RFU, ING1 / Fold change vs veh, ING1 / RFU, TRMT61B / Fold change vs veh, TRMT61B / RFU, FUBP3 / Fold change vs veh, FUBP3 / RFU, TP53 / Fold change vs veh, TP53 / RFU, TNKS2 / Fold change vs veh, TNKS2 / RFU, ZFP14 / Fold change vs veh, ZFP14 / RFU, ACTR2 / Fold change vs veh, ACTR2 / RFU, PPP3R1 / Fold change vs veh, PPP3R1 / RFU, PIK3R1 / Fold change vs veh, PIK3R1 / RFU, HNRNPA1 / Fold change vs veh, HNRNPA1 / RFU, RNF170 / Fold change vs veh, RNF170 / RFU, ZNF28 / Fold change vs veh, ZNF28 / RFU, RNGTT / Fold change vs veh, RNGTT / RFU, OGT / Fold change vs veh, OGT / RFU, BRD1 / Fold change vs veh, BRD1 / RFU, MARS / Fold change vs veh, MARS / RFU, ZNF655 / Fold change vs veh, ZNF655 / RFU, FAHD1 / Fold change vs veh, FAHD1 / RFU, BDP1 / Fold change vs veh, BDP1 / RFU, LRRCC1 / Fold change vs veh, LRRCC1 / RFU, ARID1A / Fold change vs veh, ARID1A / RFU, ZNF146 / Fold change vs veh, ZNF146 / RFU, ZNF330 / Fold change vs veh, ZNF330 / RFU, GPN3 / Fold change vs veh, GPN3 / RFU, C9orf123 / Fold change vs veh, C9orf123 / RFU, N4BP2L2 / Fold change vs veh, N4BP2L2 / RFU, ARFIP1 / Fold change vs veh, ARFIP1 / RFU, FAM179B / Fold change vs veh, FAM179B / RFU, BCL10 / Fold change vs veh, BCL10 / RFU, UHRF1BP1L / Fold change vs veh, UHRF1BP1L / RFU, BET1 / Fold change vs veh, BET1 / RFU, CNOT2 / Fold change vs veh, CNOT2 / RFU, ZNF268 / Fold change vs veh, ZNF268 / Fold change vs veh, ZNF507 / RFU, DGCR2 / Fold change vs veh, DGCR2 / RFU, WDSUB1 / Fold change vs veh, WDSUB1 / Fold change vs veh, HSP90B1 /// MIR3652 / RFU, ADSS / Fold change vs veh, ADSS / RFU, GK / Fold change vs veh, GK / RFU, ZNF148 / Fold change vs veh, ZNF148 / RFU, TAF9 / Fold change vs veh, TAF9 / RFU, SLC1A5 / Fold change vs veh, SLC1A5 / RFU, SLMO2 / Fold change vs veh, SLMO2 / RFU, ABCC4 / Fold change vs veh, ABCC4 / RFU, LOC101060439 /// RAP1B / Fold change vs veh, LOC101060439 /// RAP1B / RFU, RFX7 / Fold change vs veh, RFX7 / RFU, GTPBP10 / Fold change vs veh, GTPBP10 / RFU, CNEP1R1 / Fold change vs veh, CNEP1R1 / RFU, BIVM-ERCC5 /// ERCC5 / Fold change vs veh, BIVM-ERCC5 /// ERCC5 / RFU, ILF3 / Fold change vs veh, ILF3 / RFU 11762660_at / Fold change /veh 11762660_at / RFU VCAN (11757783_s_at) / Fold change /veh VCAN (11757783_s_at) / RFU DDX43 (11728927_at) / Fold change /veh DDX43 (11728927_at) / RFU KRT8 (11758188_x_at) / Fold change /veh KRT8 (11758188_x_at) / RFU NKD1 (11759106_at) / Fold change /veh NKD1 (11759106_at) / RFU SRD5A1 (11742802_a_at) / Fold change /veh SRD5A1 (11742802_a_at) / RFU TPSAB1 /// TPSB2 (11721975_s_at) / Fold change /veh TPSAB1 /// TPSB2 (11721975_s_at) / RFU GSTM3 (11746129_a_at) / Fold change /veh GSTM3 (11746129_a_at) / RFU IL23R (11737362_x_at) / Fold change /veh IL23R (11737362_x_at) / RFU TMEM51 (11727254_a_at) / Fold change /veh TMEM51 (11727254_a_at) / RFU PIWIL2 (11732686_x_at) / Fold change /veh PIWIL2 (11732686_x_at) / RFU ORM1 (11744905_x_at) / Fold change /veh ORM1 (11744905_x_at) / RFU CCDC152 (11743942_at) / Fold change /veh CCDC152 (11743942_at) / RFU ECM1 (11717891_a_at) / Fold change /veh ECM1 (11717891_a_at) / RFU IL23R (11748794_a_at) / Fold change /veh IL23R (11748794_a_at) / RFU TNFAIP8L3 (11732012_x_at) / Fold change /veh TNFAIP8L3 (11732012_x_at) / RFU MBOAT4 (11741988_at) / Fold change /veh MBOAT4 (11741988_at) / RFU 11764193_at / Fold change /veh 11764193_at / RFU TMEM53 (11763286_at) / Fold change /veh TMEM53 (11763286_at) / RFU MAGEB2 (11727129_at) / Fold change /veh MAGEB2 (11727129_at) / RFU TMEM200A (11744735_a_at) / Fold change /veh TMEM200A (11744735_a_at) / RFU CCDC152 (11751479_a_at) / Fold change /veh CCDC152 (11751479_a_at) / RFU FAM211A (11726209_a_at) / Fold change /veh FAM211A (11726209_a_at) / RFU RGS16 (11746705_a_at) / Fold change /veh RGS16 (11746705_a_at) / RFU VCAN (11755009_s_at) / Fold change /veh VCAN (11755009_s_at) / RFU RHOB (11743442_s_at) / Fold change /veh RHOB (11743442_s_at) / RFU RGS16 (11720943_a_at) / Fold change /veh RGS16 (11720943_a_at) / RFU RGS16 (11720944_at) / Fold change /veh RGS16 (11720944_at) / RFU, VPS4B / Fold change vs veh, VPS4B / RFU, CREB1 / Fold change vs veh, CREB1 / RFU, DNAJC13 / Fold change vs veh, DNAJC13 / RFU, GNAQ / Fold change vs veh, GNAQ / RFU, CDK5R1 / Fold change vs veh, CDK5R1 / RFU, ZRANB3 / Fold change vs veh, ZRANB3 / RFU, CUL4A / Fold change vs veh, CUL4A / RFU, CCNY / Fold change vs veh, CCNY / RFU, UFL1 / Fold change vs veh, UFL1 / RFU, COG3 / Fold change vs veh, COG3 / RFU, DIAPH2 / Fold change vs veh, DIAPH2 / RFU, SKA2 / Fold change vs veh, SKA2 / RFU, AFF3 / Fold change vs veh, AFF3 / RFU, LMF1 / Fold change vs veh, LMF1 / RFU, IPO11 / Fold change vs veh, IPO11 / RFU, DFFB / Fold change vs veh, DFFB / RFU, FOXP1 / Fold change vs veh, FOXP1 / RFU, CARD8 / Fold change vs veh, CARD8 / RFU, STRN3 / Fold change vs veh, STRN3 / RFU, ADK / Fold change vs veh, ADK / RFU, RASSF2 / Fold change vs veh, RASSF2 / RFU, WIPF1 / Fold change vs veh, WIPF1 / RFU, LARP1B / Fold change vs veh, LARP1B / RFU, RASA1 / Fold change vs veh, RASA1 / RFU, RB1 / Fold change vs veh, RB1 / RFU, PPFIA1 / Fold change vs veh, PPFIA1 / RFU, MAT2A / Fold change vs veh, MAT2A / RFU, CCT5 / Fold change vs veh, CCT5 / RFU, WDR92 / Fold change vs veh, WDR92 / RFU, CUX1 / Fold change vs veh, CUX1 / RFU, TTC7A / Fold change vs veh, TTC7A / RFU, TMEM135 / Fold change vs veh, TMEM135 / RFU, DEPTOR / Fold change vs veh, DEPTOR / RFU, CPM / Fold change vs veh, CPM / RFU, DNAJB6 / Fold change vs veh, DNAJB6 / RFU, CACNA2D3 / Fold change vs veh, CACNA2D3 / RFU, DTX4 / Fold change vs veh, DTX4 / RFU, TFCP2 / Fold change vs veh, TFCP2 / RFU, GMCL1 /// GMCL1P1 / Fold change vs veh, GMCL1 /// GMCL1P1 / RFU, AEBP2 / Fold change vs veh, AEBP2 / RFU, SNHG1 /// SNORD22 /// SNORD25 /// SNORD26 /// SNORD27 /// SNORD28 /// SNORD29 /// SNORD31 / Fold change vs veh, SNHG1 /// SNORD22 /// SNORD25 /// SNORD26 /// SNORD27 /// SNORD28 /// SNORD29 /// SNORD31 / Fold change (Aza/veh), C12orf56 (ProbeSet 11735607_a_at) / Fold change (ACY-1035/veh), C12orf56 (ProbeSet 11735607_a_at) / Fold change (Aza/veh), FGFR1OP (ProbeSet 11751329_s_at) / Fold change (ACY-1035/veh), FGFR1OP (ProbeSet 11751329_s_at) / Fold change (Aza/veh), VPS36 (ProbeSet 11739960_a_at) / Fold change (ACY-1035/veh), VPS36 (ProbeSet 11739960_a_at) / RFU SYPL1 (11715823_x_at) / Fold change /veh SYPL1 (11715823_x_at) / RFU IGFBP7 (11715501_s_at) / Fold change /veh IGFBP7 (11715501_s_at) / RFU REEP3 (11722064_at) / Fold change /veh REEP3 (11722064_at) / RFU IGLL1 (11728026_x_at) / Fold change /veh IGLL1 (11728026_x_at): dose or concentration left out as unconfirmed
Conditions: ProbeSet 11743510_at; LIST D

Nc1ncn([C@@H]2O[C@H](CO)[C@@H](O)[C@H]2O)c(=O)n1 [azacitidine]
RFU, UFL1: 314.03 RFU
